# Data taken from patent US7202261B2, “Calcilytic compounds” (NPS Pharmaceuticals, Inc., priority 1996, dated 2007).
# Where a name gives a salt, the structure may show the parent alone. Read-outs that look alike come from different tables or passages of the source.
# Molecular target: T1, human calcium receptor (Homo sapiens, UniProt P41180)
# T1 construct: expressed in transfected cells
# T1 sequence (P41180 20-1078): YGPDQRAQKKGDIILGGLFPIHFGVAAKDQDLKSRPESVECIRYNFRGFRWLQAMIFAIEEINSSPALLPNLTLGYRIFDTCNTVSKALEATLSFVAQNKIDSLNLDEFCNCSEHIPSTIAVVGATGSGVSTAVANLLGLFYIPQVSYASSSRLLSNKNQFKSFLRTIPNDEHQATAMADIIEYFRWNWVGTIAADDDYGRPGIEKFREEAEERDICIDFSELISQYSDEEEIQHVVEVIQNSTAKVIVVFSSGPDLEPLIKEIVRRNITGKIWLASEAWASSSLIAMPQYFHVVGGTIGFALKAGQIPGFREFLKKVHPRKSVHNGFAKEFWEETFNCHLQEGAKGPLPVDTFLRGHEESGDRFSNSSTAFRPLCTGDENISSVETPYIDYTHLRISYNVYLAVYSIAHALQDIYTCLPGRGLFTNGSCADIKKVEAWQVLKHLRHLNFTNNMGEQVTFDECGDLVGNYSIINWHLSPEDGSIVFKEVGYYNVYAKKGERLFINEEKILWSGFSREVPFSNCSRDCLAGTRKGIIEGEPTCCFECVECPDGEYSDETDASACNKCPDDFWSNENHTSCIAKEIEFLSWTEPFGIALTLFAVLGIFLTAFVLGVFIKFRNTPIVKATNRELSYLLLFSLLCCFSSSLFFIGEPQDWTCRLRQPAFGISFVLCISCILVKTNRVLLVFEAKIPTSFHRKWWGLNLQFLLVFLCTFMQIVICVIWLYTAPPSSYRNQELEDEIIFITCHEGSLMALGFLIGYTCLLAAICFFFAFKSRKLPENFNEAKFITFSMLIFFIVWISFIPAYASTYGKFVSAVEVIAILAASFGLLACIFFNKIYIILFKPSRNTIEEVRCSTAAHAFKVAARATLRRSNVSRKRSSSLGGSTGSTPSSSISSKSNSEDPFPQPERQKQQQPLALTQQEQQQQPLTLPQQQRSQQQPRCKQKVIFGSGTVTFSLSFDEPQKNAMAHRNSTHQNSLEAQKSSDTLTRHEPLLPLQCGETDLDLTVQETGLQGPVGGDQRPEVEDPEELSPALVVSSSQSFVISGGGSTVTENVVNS
# Test: Calcium Receptor Inhibitor Assay
# Assay type: cell-based
# Summary of the method: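 Intracellular Ca^2+ measured with fluo-3 at 37° C in stirred cell suspension. Buffer held 1 mM CaCl2 and 1 mg/mL D-glucose. Compound or vehicle added 90 seconds before extracellular Ca^2+ was raised from 1 to 2 mM, and calcilytic activity scored as concentration-dependent block of the intracellular Ca^2+ rise.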
# [1] = HEK 293 4.0–7 cells stably expressing the human calcium receptor, fluo-3, read-out: IC50 for blocking increases of intracellular Ca2+ elicited by extracellular Ca2+
SMILES,IC50 [1],IC50
"COc1ccc(CC(C)(C)NC[C@@H](O)COc2cccc(Cl)c2Cl)cc1 [Compound 115, (R)—N-[2-Hydroxy-3-(2,3-dichlorophenoxy)propyl]-1,1-dimethyl-2-(4-methoxyphenyl)ethylamine Hydrochloride]",< 1000 nM,
"COc1ccc(CC(C)(C)NC[C@H](O)COc2cccc(Cl)c2Cl)cc1 [Compound 116, (S)—N-[2-Hydroxy-3-(2,3-dichlorophenoxy)propyl]-1,1-dimethyl-2-(4-methoxyphenyl)ethyl amine Hydrochloride]",< 1000 nM,
"COc1ccc(CC(C)(C)NCC(O)COc2ccccc2)cc1C (centres unmarked) [Compound 117, N-(2-Hydroxy-3-phenoxypropyl)-1,1-dimethyl-2-(4-methoxy-3-methylphenyl)ethylamine Hydrochloride]",< 1000 nM,
"COc1ccc(CC(C)(C)NCC(O)COc2cccc(OC)c2C#N)cc1 (centres unmarked) [Compound 118, N-[2-Hydroxy-3-(2-cyano-3-methoxyphenoxy)propyl]-1,1-dimethyl-2-(4-methoxyphenyl)ethylamine Hydrochloride]",< 1000 nM,
"COc1ccc(CC(C)(C)NCC(O)COc2cccc(Cl)c2C#N)cc1 (centres unmarked) [Compound 119, N-[2-Hydroxy-3-(3-chloro-2-cyanophenoxy)propyl]-1,1-dimethyl-2-(4-methoxyphenyl)ethylamine Hydrochloride]",< 1000 nM,
"CC(C)(Cc1ccc2ccccc2c1)NCC(O)COc1ccccc1 (centres unmarked) [Compound 120, N-(2-Hydroxy-3-phenoxypropyl)-1,1-dimethyl-2-(2-naphthyl)ethylamine Hydrochloride]",< 1000 nM,
"Cc1ccc(CC(C)(C)NCC(O)COc2ccccc2)cc1C (centres unmarked) [Compound 121, N-(2-Hydroxy-3-phenoxy)propyl)-1,1-dimethyl-2-(3,4-dimethylphenyl)ethylamine Hydrochloride]",< 1000 nM,
"COc1ccc(CC(C)(C)NC[C@@H](O)COc2ccccc2C#N)cc1 [Compound 122, (R)—N-[2-Hydroxy-3-(2-cyanophenoxy)propyl]-1,1-dimethyl-2-(4-methoxyphenyl)ethylamine Hydrochloride]",< 1000 nM,
"COc1ccc(CC(C)(C)NCC(O)CCCCCCCCO)cc1 (centres unmarked) [Compound 123, N-(2,10-Dihydroxydecyl)-1,1-dimethyl-2-(4-methoxyphenyl)ethylamine Hydrochloride]",,< 10000 nM
"COc1ccc(CC(C)(C)NCC(O)Cc2ccc3c(c2)OCO3)cc1 (centres unmarked) [Compound 124, N-[2-hydroxy-3-(3,4-methylene-dioxyphenyl)propyl]-1,1-dimethyl-2-(4-methoxyphenyl)ethylamine Hydrochloride]",,< 10000 nM
"COc1ccc(CC(C)(C)NCC(O)COCCCCCCc2ccccc2)cc1 (centres unmarked) [Compound 126, N-[2-hydroxy-3-(6-phenyl-hexanoxy)propyl]-1,1-dimethyl-2-(4-methoxyphenyl)ethylamine]",< 1000 nM,
"COc1ccc(CC(C)(C)NCC(O)COCCCCc2ccccc2)cc1 (centres unmarked) [Compound 127, N-[2-hydroxy-3-(4-phenyl-butanoxy)propyl]-1,1-dimethyl-2-(4-methoxyphenyl)ethylamine]",< 1000 nM,
"COc1ccc(CC(C)(C)NCC(O)COc2ccccc2)cc1F (centres unmarked) [Compound 128, N-(2-hydroxy-3-phenoxypropyl)-1,1-dimethyl-2-(3-fluoro-4-methoxyphenyl) ethylamine]",< 10000 nM,
"COc1ccc(CC(C)(C)NCC(O)COc2ccccc2)c(F)c1 (centres unmarked) [Compound 129, N-(2-hydroxy-3-phenoxypropyl)-1,1-dimethyl-2-(2-fluoro-4-methoxyphenyl)ethylamine Hydrochloride]",< 1000 nM,
"COc1ccc(CC(C)(C)NCC(O)COc2cccc3c(OC)cccc23)cc1 (centres unmarked) [Compound 130, N-[2-hydroxy-3-(5-methoxy-1-napthoxy)propyl]-1,1-dimethyl-2-(4-methoxyphenyl)ethylamine Hydrochloride]",< 1000 nM,
"COc1ccc(CC(C)(C)NCC(O)COC2CCCCC2C#N)cc1 (centres unmarked) [Compound 131, N-[2-hydroxy-3-(2-cyano-cyclohexyloxy)propyl-1,1-dimethyl-2-(4-methoxyphenyl)ethylamine Hydrochloride]",,< 1000 nM

SMILES,IC50 [1],IC50
"COc1ccc(CC(C)(C)NCC(O)COc2ccc(OC)c(OC)c2)cc1 (centres unmarked) [Compound 132, N-[2-hydroxy-3-(3,4-dimethoxyphenoxy)propyl]-1,1-dimethyl-2-(4-methoxyphenyl)ethylamine Hydrochloride]",< 10000 nM,
"COc1ccc(CC(C)(C)NCC(O)COc2cc(OC)cc(OC)c2)cc1 (centres unmarked) [Compound 133, N-[2-hydroxy-3-(3,5-dimethoxyphenoxy)propyl]-1,1-dimethyl-2-(4-methoxyphenyl)ethylamine Hydrochloride]",< 1000 nM,
"COC(=O)c1ccccc1OCC(O)CNC(C)(C)Cc1ccc(OC)cc1 (centres unmarked) [Compound 134, N-[2-hydroxy-3-(2-carbomethoxyphenoxy)propyl]-1,1-dimethyl-2-(4-methoxyphenyl)ethylamine Hydrochloride]",< 1000 nM,
"COc1ccc(CC(C)(C)NCC(O)COc2ccc(C)cc2)cc1 (centres unmarked) [Compound 135, N-[2-hydroxy-3-(4-methylphenoxy)propyl]-1,1-dimethyl-2-(4-methoxyphenyl)ethylamine Hydrochloride]",< 1000 nM,
"COc1ccc(CC(C)(C)NCC(O)COc2cccc(Cl)c2Cl)cc1 (centres unmarked) [Compound 136, N-[2-hydroxy-3-(2,3-dichlorophenoxy)propyl]-1,1-dimethyl-2-(4-methoxyphenyl)ethylamine Hydrochloride]",< 1000 nM,
"COc1ccc(CC(C)(C)NCC(O)COc2cc(Cl)cc(Cl)c2)cc1 (centres unmarked) [Compound 137, N-[2-hydroxy-3-(3,5-dichlorophenoxy)propyl]-1,1-dimethyl-2-(4-methoxyphenyl)ethylamine Hydrochloride]",< 1000 nM,
"COc1ccc(CC(C)(C)NCC(O)COc2ccc(Cl)cc2Cl)cc1 (centres unmarked) [Compound 138, N-[2-hydroxy-3-(2,4-dichlorophenoxy)propyl]-1,1-dimethyl-2-(4-methoxyphenyl)ethylamine Hydrochloride]",< 1000 nM,
"COc1ccc(CC(C)(C)NCC(O)COc2ccc(Cl)c(Cl)c2)cc1 (centres unmarked) [Compound 139, N-[2-hydroxy-3-(3,4-dichlorophenoxy)propyl]-1,1-dimethyl-2-(4-methoxyphenyl)ethylamine Hydrochloride]",< 1000 nM,
"COc1ccc(CC(C)(C)NCC(O)COc2cc(Cl)ccc2Cl)cc1 (centres unmarked) [Compound 140, N-[2-hydroxy-3-(2,5-dichlorophenoxy)propyl]-1,1-dimethyl-2-(4-methoxyphenyl)ethylamine Hydrochloride]",< 1000 nM,
"CCc1ccc(OCC(O)CNC(C)(C)Cc2ccc(OC)cc2)cc1 (centres unmarked) [Compound 141, N-[2-hydroxy-3-(4-ethylphenoxy)propyl]-1,1-dimethyl-2-(4-methoxyphenyl)ethylamine Hydrochloride]",< 1000 nM,
"COc1ccc(CC(C)(C)NCC(O)COc2ccccc2C#N)cc1 (centres unmarked) [Compound 142, N-[2-hydroxy-3-(2-cyanophenoxy)propyl]-1,1-dimethyl-2-(4-methoxyphenyl)ethylamine Hydrochloride]",< 1000 nM,
"COc1ccc(CC(C)(C)NCC(O)COc2cccc([N+](=O)[O-])c2)cc1 (centres unmarked) [Compound 143, N-[2-hydroxy-3-(3-nitrophenoxy)propyl]-1,1-dimethyl-2-(4-methoxyphenyl)ethylamine Hydrochloride]",< 1000 nM,
"CCOc1ccc(OCC(O)CNC(C)(C)Cc2ccc(OC)cc2)cc1 (centres unmarked) [Compound 144, N-[2-hydroxy-3-(4-ethoxyphenoxy)propyl]-1,1-dimethyl-2-(4-methoxyphenyl)ethylamine Hydrochloride]",< 10000 nM,
"COc1ccc(CC(C)(C)NCC(O)COc2ccc(C(C)C)cc2)cc1 (centres unmarked) [Compound 145, N-[2-hydroxy-3-(4-iso-propylphenoxy)propyl]-1,1-dimethyl-2-(4-methoxyphenyl)ethylamine Hydrochloride]",< 1000 nM,
"COc1ccc(CC(C)(C)NCC(O)COc2cccc(C(C)C)c2)cc1 (centres unmarked) [Compound 146, N-[2-hydroxy-3-(3-iso-propylphenoxy)propyl]-1,1-dimethyl-2-(4-methoxyphenyl)ethylamine Hydrochloride]",< 1000 nM,
"CCOc1cccc(OCC(O)CNC(C)(C)Cc2ccc(OC)cc2)c1 (centres unmarked) [Compound 147, N-[2-hydroxy-3-(3-ethoxyphenoxy)propyl]-1,1-dimethyl-2-(4-methoxyphenyl)ethylamine Hydrochloride]",< 10000 nM,
